Earlier results, collected in patent publication US20110281813A1, “METHOD OF TREATING C-KIT POSITIVE RELAPSED ACUTE MYELOID LEUKEMIA” (priority 2008, published 2011).
Where a name gives a salt, the structure may show the parent alone.

System: relapsed/ refractory AML

For `Cc1ccc(NC(=O)c2ccc(CN3CCN(C)CC3)cc2)cc1Nc1nccc(-c2cccnc2)n1` [Imatinib mesylate, 4-(4-methylpiperazin-1-ylmethyl)-N-[4-methyl-3-(4-(pyridin-3-yl)pyrimidin-2-ylamino)phenyl]-benzamide], the single agent activity is given as “has single agent activity”.
